Laboratory results from patent publication US20240051946A1, “TARGETED PROTEIN DEGRADATION OF PARP14 FOR USE IN THERAPY” (Ribon Therapeutics, Inc., priority 2022, published 2024).

Molecular target: T1, catalytic domain of human PARP14 (residues 1611 to 1801) with NanoLuc tag (Homo sapiens, UniProt Q460N5)
T1 construct: expressed in transfected cells; host or cells: HEK-293T cells (ATCC), plasmid pRTX240 in pcDNA3.1(-)
T1 sequence (Q460N5 1611-1801): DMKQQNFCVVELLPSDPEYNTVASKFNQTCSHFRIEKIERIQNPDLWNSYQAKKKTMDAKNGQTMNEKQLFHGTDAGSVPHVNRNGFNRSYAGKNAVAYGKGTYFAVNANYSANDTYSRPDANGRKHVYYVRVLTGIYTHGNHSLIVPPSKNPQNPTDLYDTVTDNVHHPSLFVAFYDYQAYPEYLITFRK
Assay: NanoLuc assay for the degradation of PARP14
Format: cell-based
Details: Assay A; NanoLuc-PARP14 overexpressed in HEK-293T cells; 2 hours at 37 degrees; luminescence
Method: The catalytic domain of human PARP14 (residues 1611 to 1801, GenBank Accession No. NM_017554) was inserted into the pcDNA3.1(−) vector. The insert also contained a NanoLuc tag on the N terminus of the PARP14 protein.
Degradation of PARP14 protein was assessed using measurement of the NanoLuc tag as proxy for the PARP14 protein. PARP14 with NanoLuc tag was overexpressed in […] cells (ATCC) using the plasmid described in Table 1. Plasmid DNA was diluted in empty vector DNA then added to 1.163 mL of phenol red free OptiMEM (Thermo Fisher). Plasmid DNA concentrations used in each assay described in Table 1. The plasmid DNA was mixed with 78.5 μL of Fugene HD (Promega) and allowed to incubate 5 minutes.
Next, 1.125 mL were added to 10 million 293T cells in DMEM (Thermo Fisher) supplemented with 10% FBS (VWR) and 1× Glutamax (Gibco). The transfection was incubated for 24 hrs at 37 degrees in an incubator supplemented with 5% CO2. The cells were then trypsinized and brought up in phenol red free OptiMEM media. Transfected HEK-293T cells were diluted to […] and then added to assay plate (Corning 3574) using a Multidrop (Thermo Fisher) to add 40 μL per well of the 384 well plate, resulting in 5,000 cells per well. 40 nL of a dose response curve diluted in DMSO of each test compound was added to the cell plate using a Mosquito (TTP Labtech) and the plate was incubated at 37 degrees for 2 hours. Assay plate was brought to room temperature then 20 μL per well of NanoGlo (Promega) was added to the plate. Luminescence was measured on an Envision (Perkin Elmer).
The average DMSO was calculated from 32 wells containing 0.1% DMSO only in columns 12 and 24 of the assay plate. The % of DMSO values were calculated as described below: […]
The % of DMSO values were plotted as a function of compound concentration and the following 4-parameter fit was applied to derive the DC50 values:
where top, bottom, and Hill Coefficient are allowed to float. Y is the % of DMSO and X is the compound concentration.
DC50 data for the Example compounds is provided below in Table 2 (“+” is <0.1 μM; “++” is ≥0.1 μM and <1 μM; and “+++” is ≥1 μM).

Compound	DC50 [nM]
O=C(CN1CCC(SCc2nc3cc(OCC4CCOCC4)cc(F)c3c(=O)[nH]2)CC1)NCCCCCC(=O)N1CCC(c2cccc(NC3CCC(=O)NC3=O)c2)CC1 (stereo not shown) [Example 12, N-(6-(4-(3-((2,6-dioxopiperidin-3-yl)amino)phenyl)piperidin-1-yl)-6-oxohexyl)-2-(4-(((5-fluoro-4-oxo-7-((tetrahydro-2H-pyran-4-yl)methoxy)-3,4-dihydroquinazolin-2-yl)methyl)thio)piperidin-1-yl)acetamide]	< 100
O=C(CN1CCC(SCc2nc3cc(OCC4CCOCC4)cc(F)c3c(=O)[nH]2)CC1)NCCCCN1CCC(c2cccc(NC3CCC(=O)NC3=O)c2)CC1 (stereo not shown) [Example 13, N-(4-(4-(3-((2,6-dioxopiperidin-3-yl)amino)phenyl)piperidin-1-yl)butyl)-2-(4-(((5-fluoro-4-oxo-7-((tetrahydro-2H-pyran-4-yl)methoxy)-3,4-dihydroquinazolin-2-yl)methyl)thio)piperidin-1-yl)acetamide]	< 100
O=C(CN1CCC(SCc2nc3cc(OCC4CCOCC4)cc(F)c3c(=O)[nH]2)CC1)NCCCC(=O)N1CCC(c2cccc(NC3CCC(=O)NC3=O)c2)CC1 (stereo not shown) [Example 14, N-(4-(4-(3-((2,6-dioxopiperidin-3-yl)amino)phenyl)piperidin-1-yl)-4-oxobutyl)-2-(4-(((5-fluoro-4-oxo-7-((tetrahydro-2H-pyran-4-yl)methoxy)-3,4-dihydroquinazolin-2-yl)methyl)thio)piperidin-1-yl)acetamide]	< 100
O=C(CN1CCC(SCc2nc3cc(OCC4CCOCC4)cc(F)c3c(=O)[nH]2)CC1)NCCN1CCC(c2cccc(NC3CCC(=O)NC3=O)c2)CC1 (stereo not shown) [Example 15, N-(2-(4-(3-((2,6-dioxopiperidin-3-yl)amino)phenyl)piperidin-1-yl)ethyl)-2-(4-(((5-fluoro-4-oxo-7-((tetrahydro-2H-pyran-4-yl)methoxy)-3,4-dihydroquinazolin-2-yl)methyl)thio)piperidin-1-yl)acetamide]	< 100
CC(=O)N1CCC(COc2cc(F)c3c(=O)[nH]c(CSC4CCN(CC(=O)N5CCC(c6ccc(N7CCN(C8CCC(=O)NC8=O)C7=O)cc6)CC5)CC4)nc3c2)CC1 (stereo not shown) [Example 18, 3-(3-(4-(1-(2-(4-(((7-((1-acetylpiperidin-4-yl)methoxy)-5-fluoro-4-oxo-3,4-dihydroquinazolin-2-yl)methyl)thio)piperidin-1-yl)acetyl)piperidin-4-yl)phenyl)-2-oxoimidazolidin-1-yl)piperidine-2,6-dione]	< 100
CC(=O)N1CCC(COc2cc(F)c3c(=O)[nH]c(CSC4CCN(CC(=O)N5CCC(CN6CCN(c7cccc8c7C(=O)N(C7CCC(=O)NC7=O)C8=O)CC6)CC5)CC4)nc3c2)CC1 (stereo not shown) [Example 19, 4-(4-((1-(2-(4-(((7-((1-acetylpiperidin-4-yl)methoxy)-5-fluoro-4-oxo-3,4-dihydroquinazolin-2-yl)methyl)thio)piperidin-1-yl)acetyl)piperidin-4-yl)methyl)piperazin-1-yl)-2-(2,6-dioxopiperidin-3-yl)isoindoline-1,3-dione]	< 100
O=C1CCN(c2ccc(C3CCN(CC4CCN(C(=O)CN5CCC(SCc6nc7cc(OCC8CCOCC8)cc(F)c7c(=O)[nH]6)CC5)CC4)CC3)cc2)C(=O)N1 [Example 20, 1-(4-(1-((1-(2-(4-(((5-fluoro-4-oxo-7-((tetrahydro-2H-pyran-4-yl)methoxy)-3,4-dihydroquinazolin-2-yl)methyl)thio)piperidin-1-yl)acetyl)piperidin-4-yl)methyl)piperidin-4-yl)phenyl)dihydropyrimidine-2,4(1H,3H)-dione]	< 100
CC(=O)N1CCC(COc2cc(F)c3c(=O)[nH]c(CSC4CCN(C(=O)C5CCN(CC6CCN(c7cccc8c7C(=O)N(C7CCC(=O)NC7=O)C8=O)CC6)CC5)CC4)nc3c2)CC1 (stereo not shown) [Example 22, 4-(4-((4-(4-(((7-((1-acetylpiperidin-4-yl)methoxy)-5-fluoro-4-oxo-3,4-dihydroquinazolin-2-yl)methyl)thio)piperidine-1-carbonyl)piperidin-1-yl)methyl)piperidin-1-yl)-2-(2,6-dioxopiperidin-3-yl)isoindoline-1,3-dione]	< 100
O=C1CCC(N2C(=O)c3cccc(N4CCC(CN5CCC(C(=O)N6CCC(SCc7nc8cc(NC9CCCC9)cc(F)c8c(=O)[nH]7)CC6)CC5)CC4)c3C2=O)C(=O)N1 (stereo not shown) [Example 23, 4-(4-((4-(4-(((7-(cyclopentylamino)-5-fluoro-4-oxo-3,4-dihydroquinazolin-2-yl)methyl)thio)piperidine-1-carbonyl)piperidin-1-yl)methyl)piperidin-1-yl)-2-(2,6-dioxopiperidin-3-yl)isoindoline-1,3-dione]	< 100
CC(=O)N1CCC(COc2cc(F)c3c(=O)[nH]c(CSC4CCN(C(=O)c5ccc(NC6CCC(=O)NC6=O)cc5)CC4)nc3c2)CC1 (stereo not shown) [Example 25, 3-((4-(4-(((7-((1-acetylpiperidin-4-yl)methoxy)-5-fluoro-4-oxo-3,4-dihydroquinazolin-2-yl)methyl)thio)piperidine-1-carbonyl)phenyl)amino)piperidine-2,6-dione]	< 100

Second part, the molecule after the results:

DC50 [nM]	Compound
< 100	O=C(CN1CCC(SCc2nc3cc(OCC4CCOCC4)cc(F)c3c(=O)[nH]2)CC1)NCCN1CCC(c2ccc(NC3CCC(=O)NC3=O)cc2)CC1 (stereo not shown) [Example 9, N-(2-(4-(4-((2,6-dioxopiperidin-3-yl)amino)phenyl)piperidin-1-yl)ethyl)-2-(4-(((5-fluoro-4-oxo-7-((tetrahydro-2H-pyran-4-yl)methoxy)-3,4-dihydroquinazolin-2-yl)methyl)thio)piperidin-1-yl)acetamide]
< 100	O=C(CN1CCC(SCc2nc3cc(OCC4CCOCC4)cc(F)c3c(=O)[nH]2)CC1)NCC(=O)N1CCC(c2ccc(NC3CCC(=O)NC3=O)cc2)CC1 (stereo not shown) [Example 10, N-(2-(4-(4-((2,6-dioxopiperidin-3-yl)amino)phenyl)piperidin-1-yl)-2-oxoethyl)-2-(4-(((5-fluoro-4-oxo-7-((tetrahydro-2H-pyran-4-yl)methoxy)-3,4-dihydroquinazolin-2-yl)methyl)thio)piperidin-1-yl)acetamide]
< 100	O=C(CN1CCC(SCc2nc3cc(OCC4CCOCC4)cc(F)c3c(=O)[nH]2)CC1)NCC(=O)N1CCC(c2cccc(NC3CCC(=O)NC3=O)c2)CC1 (stereo not shown) [Example 11, N-(2-(4-(3-((2,6-dioxopiperidin-3-yl)amino)phenyl)piperidin-1-yl)-2-oxoethyl)-2-(4-(((5-fluoro-4-oxo-7-((tetrahydro-2H-pyran-4-yl)methoxy)-3,4-dihydroquinazolin-2-yl)methyl)thio)piperidin-1-yl)acetamide]
< 100	O=C(CN1CCC(SCc2nc3cc(OCC4CCOCC4)cc(F)c3c(=O)[nH]2)CC1)NCCCCCCN1CCC(c2cccc(NC3CCC(=O)NC3=O)c2)CC1 (stereo not shown) [Example 16, N-(6-(4-(3-((2,6-dioxopiperidin-3-yl)amino)phenyl)piperidin-1-yl)hexyl)-2-(4-(((5-fluoro-4-oxo-7-((tetrahydro-2H-pyran-4-yl)methoxy)-3,4-dihydroquinazolin-2-yl)methyl)thio)piperidin-1-yl)acetamide]
< 100	CC(=O)N1CCC(COc2cc(F)c3c(=O)[nH]c(CSC4CCN(C(=O)CNc5cccc6c5C(=O)N(C5CCC(=O)NC5=O)C6=O)CC4)nc3c2)CC1 (stereo not shown) [Example 21, 4-((2-(4-(((7-((1-acetylpiperidin-4-yl)methoxy)-5-fluoro-4-oxo-3,4-dihydroquinazolin-2-yl)methyl)thio)piperidin-1-yl)-2-oxoethyl)amino)-2-(2,6-dioxopiperidin-3-yl)isoindoline-1,3-dione]
< 100	CC(=O)N1CCC(COc2cc(F)c3c(=O)[nH]c(CSC4CCN(C(=O)CNc5ccc6c(c5)C(=O)N(C5CCC(=O)NC5=O)C6=O)CC4)nc3c2)CC1 (stereo not shown) [Example 24, 5-((2-(4-(((7-((1-acetylpiperidin-4-yl)methoxy)-5-fluoro-4-oxo-3,4-dihydroquinazolin-2-yl)methyl)thio)piperidin-1-yl)-2-oxoethyl)amino)-2-(2,6-dioxopiperidin-3-yl)isoindoline-1,3-dione]
